Test results taken from patent publication US7608642B2, “Wound and skin care compositions” (Kimberly-Clark Worldwide, Inc., priority 2002, dated 2009).
Several values for one entry are separate records, joined by “and”; a condition that tells them apart may be missing. Equal entries are not always repeated. Entries after “also recorded” stand apart in the source; their conditions may differ. Where two headings read alike, the source gives them in different places.

Key:
[1] = test system: human skin fibroblast cell line (normal human dermal fibroblasts, neonatal); details: for Cell proliferating activity on human skin fibroblasts (in words): 1×10^−4 M to 1×10^−6 M vs control; for Mean optical density (OD) at 490 nm, cell proliferation / Median optical density (OD) at 490 nm, cell proliferation: 28 hours, serum-free DMEM, n=5
Experimental: Statistical analyses of data were performed using one-way ANOVA. P<0.05 is considered significant, while P<0.0001 is considered extremely significant and P<0.001 is considered as very very significant.

[2] = test system: human skin keratinocyte cell line (normal human epidermal keratinocytes, neonatal); assay: Proliferation of human skin keratinocytes (Cell Titer 96, absorbance 490 nm); assay type: cell-based; details: for Cell proliferating activity on human keratinocytes (in words): 1×10^−4 M to 1×10^−6 M vs control; for Mean optical density (OD) at 490 nm, cell proliferation / Median optical density (OD) at 490 nm, cell proliferation: 48 hours, KBM, n=5
Experimental: In addition, 100 μl of vehicle KBM was added to 5 wells as control. […] The spectrophotometric absorbance of each well was read at 490 nm.

[3] = test system: collagen production in the human skin fibroblast cell line; assay: Collagen production in human skin fibroblasts (Takara EIA kit MK101, absorbance 450 nm); assay type: cell-based; details: for Stimulation of collagen production (in words): 1×10^−4 M to 1×10^−6 M vs control; for Mean optical density (OD) at 450 nm, collagen production / Median optical density (OD) at 450 nm, collagen production: 48 hours, n=2
Experimental: The cells were first grown in a 96-well assay system using Dulbecco's Modified Eagle's Medium (DMEM) with 10% fetal bovine serum (FBS) both purchased from Sigma Chemical Co, St. Louis, Mo. Serum-free DMEM was used as a control.
The assay was done by using the recommended 20 ul of the supernatant from each well of the 96-well plate. Standard buffer and stop solutions were freshly prepared before running the assay. 100 ul of antibody-POD conjugate solution (supplied with the kit) was added into the wells using pre antibody coated 96 well plate (supplied with the kit). 20 ul of standard and test solutions (from the other 96-well plate containing fibroblasts) were added to appropriate wells. Plate was mixed gently, sealed and incubated for three hrs. at 37° C.
After incubation each well was washed carefully four times with PBS buffer (400 ul). All the wells were completely emptied at the end of washing from any liquid.
100 ul of substrate solution (hydrogen peroxide and tetramethylbenzidine in a buffer solution, supplied with the kit) was added to each well and the plate was incubated for 15 minutes. At this point 100 ul of stop solution (freshly prepared 1N H2SO4) was added to each well in the same order as substrate. The plate was gently mixed and absorbance was read at 450 nm.

[4] = test system: fibronectin production in the human skin fibroblast cell line; assay: Fibronectin production in human skin fibroblasts (Takara EIA kit MK115, absorbance 450 nm); assay type: cell-based; details: for Stimulation of fibronectin production (in words): 1×10^−4 M to 1×10^−6 M vs control; for Mean optical density (OD) at 450 nm, fibronectin production / Median optical density (OD) at 450 nm, fibronectin production: 48 hours, n=2
Experimental: The cells were first grown in a 96-well assay system using Dulbecco's Modified Eagle's Medium (DMEM) with 10% fetal bovine serum (FBS) both purchased from Sigma Chemical Co, St. Louis, Mo. Serum-free DMEM was used as a control. […] The fibronectin assay was performed using the recommended 100 μl of the supernatant from each well of the 96-well plate. Standard buffer and stop solutions were freshly prepared before running the assay. A pre-antibody-coated 96 well plate (provided with the kit) was used to transfer the test samples and control. The plate was mixed, sealed and incubated for 1 hour at 37° C. All the wells were washed after removing sample solutions, 3 times (300 μl) with washing buffer. 100 ul of antibody-POD conjugate solution was added into the wells. Plate was mixed, sealed and incubated for one hour at 37° C. Solutions were removed and the wells were washed 3 times with washing buffer. All the wells were completely emptied at the end of washing from any liquid. 100 μl of substrate solution (hydrogen peroxide and tetramethylbenzidine in a buffered solution) was added to each well and the plate was incubated at room temperature for 15 minutes. 100 μl of stop solution (freshly prepared 1N H2SO4) was added to each well in the same order as substrate. The plate was gently mixed and absorbance was read at 450 nm.

[5] = test system: Swiss Albino mice; assay: Wound healing, full thickness skin wounds (3 mm biopsy punch) in mice; assay type: in vivo, mouse; details: topical 5 μl of 0.2% solution, 5 doses Day 0-2, vs control (WFI)
Experimental: Twenty, 12-week old Swiss Albino mice were anesthetized with a ketamine/acepromazine cocktail and subjected to four full thickness skin wounds on the dorsolateral surface. […] Jasmonic acid (100 mg) was dissolved in 2 ml ethanol. 200 μl of the resulting solution was then added to 4.8 ml of WFI. Four wounds were made on either side of the spinal column using a 3 mm biopsy punch. To make the wounds, the skin was first tented and the punch was driven through the tented skin to generate both wounds with a single stroke. The upper left quadrant wound site of the animal was assigned to receive the control solution (WFI). […] The wound sites were dosed 5 times (twice on Day 0, Day 1, and once on Day 2). All wounds were treated with 5 μl of test or control solutions. Wounds were allowed to absorb the solutions for 5 minutes before returning the animals to their cages for recovery. All the animals were housed singly. The in-life phase for the animals is 5 days. Each day the wounds on the mice were traced onto glass slides and measured using calipers accurate to the nearest 0.1 mm. Photographs of the wounds were also taken daily for the duration of the study to measure wound size. Means and the standard deviations of the wound diameters for each day were calculated for the healing profile. The effects of the test substances on wound healing were compared to the effects of the control (WFI).

[6] = test system: healthy female volunteers; assay: Dansyl chloride cell renewal study (stratum corneum renewal time); assay type: in vivo, human; details: topical twice daily for two weeks
Text: The stratum corneum renewal time is the time taken for the whole thickness of the stratum corneum to be exfoliated and replaced by new cells from the dividing epidermis. This renewal time is a fundamental indicator of skin health. […] See Jansen L H, Hojyo-Tomoko M T, Kligman A M., Improved fluorescence staining technique for estimating turnover of the human stratum corneum, Br J Dermatol., 90, 9-12, 1974; Ridge B D, Batt M D, Palmer H E, Jarrett A, The dansyl chloride technique for stratum corneum renewal as an indicator of changes in epidermal mitotic activity following topical treatment., Br J Dermatol., 118, 167-74, 1988; Grove G L, Kligman A M, Age-associated changes in human epidermal cell renewal., J Geron., 38, 137-142, 1983. The time required for the dye to disappear is therefore an indication of the turnover time of the stratum corneum. Therefore, any differences in the time required for the dye to disappear from treated and non-treated sites can be considered to be an expression of that product's ability to enhance epidermal renewal.
A dansyl chloride cell renewal study was conducted in healthy female volunteers ranging from 43-64 years of age. The study consisted of a two-week treatment period during which time the products were applied topically twice daily, including on weekend days, to the test sites. The area of application was designated, approximately 5 cm×10 cm on the upper inner arm. The other arm served as a control with no product application. […] Eight females received jasmonic acid and seven females received gibberellic acid.
The time required for a marker dye to disappear was used as the measure of cell renewal rate.

Molecule	Cell proliferating activity on human skin fibroblasts (in words) [1]	Mean optical density (OD) at 490 nm, cell proliferation ([1]; 1×10^−4 M)	Mean optical density (OD) at 490 nm, cell proliferation ([1]; 1×10^−5 M)	Median optical density (OD) at 490 nm, cell proliferation ([1]; 1×10^−5 M)	Mean optical density (OD) at 490 nm, cell proliferation ([1]; 1×10^−6 M)	Median optical density (OD) at 490 nm, cell proliferation ([1]; 1×10^−6 M)	Mean optical density (OD) at 490 nm, cell proliferation ([2]; 1×10^−4 M)	Median optical density (OD) at 490 nm, cell proliferation ([2]; 1×10^−4 M)	Mean optical density (OD) at 490 nm, cell proliferation ([2]; 1×10^−5 M)	Median optical density (OD) at 490 nm, cell proliferation ([2]; 1×10^−5 M)	Mean optical density (OD) at 490 nm, cell proliferation ([2]; 1×10^−6 M)	Median optical density (OD) at 490 nm, cell proliferation ([2]; 1×10^−6 M)	Stimulation of collagen production (in words) [3]	Mean optical density (OD) at 450 nm, collagen production ([3]; 1×10^−4 M)	Median optical density (OD) at 450 nm, collagen production ([3]; 1×10^−4 M)	Mean optical density (OD) at 450 nm, collagen production ([3]; 1×10^−5 M)	Median optical density (OD) at 450 nm, collagen production ([3]; 1×10^−5 M)	Mean optical density (OD) at 450 nm, collagen production ([3]; 1×10^−6 M)	Median optical density (OD) at 450 nm, collagen production ([3]; 1×10^−6 M)	Stimulation of fibronectin production (in words) [4]	also measured
CC(=O)Oc1ccccc1C(=O)O [acetylsalicylic acid]	strong cell proliferating activity at all concentrations; also recorded: all concentrations of acetylsalicylic acid had a significant effect on cell growth	0.5406	0.6276	0.6270	0.6590	0.6590															Median optical density (OD) at 490 nm, cell proliferation ([1]; 1×10^−4 M): 0.5290
C=C1C[C@]23C[C@@]1(O)CC[C@H]2[C@@]12C=C[C@H](O)[C@@](C)(C(=O)O1)[C@H]2[C@@H]3C(=O)O [gibberellic acid]							0.6512	0.6510	0.8184	0.8210	0.7854	0.7900	more profound, particularly at lower, rather than higher, concentrations; also recorded: lower concentrations of gibberellic acid had the most profound effect	0.7780	0.7780	0.8365	0.8365	0.8630	0.8630	effective for stimulating fibronectin production in human fibroblasts; also recorded: Both low and high concentrations of gibberellic acid stimulated fibronectin production	Cell proliferating activity on human keratinocytes (in words) [2]: all concentrations of gibberellic acid had a significant effect on cell growth; Cell proliferating activity on human keratinocytes (in words) ([2]; listed as giberrellic acid): strong cell proliferating activity at all concentrations; Mean optical density (OD) at 450 nm, fibronectin production ([4]; 1×10^−4 M): 0.2150; Median optical density (OD) at 450 nm, fibronectin production ([4]; 1×10^−4 M): 0.2150; Mean optical density (OD) at 450 nm, fibronectin production ([4]; 1×10^−5 M): 0.2090; Median optical density (OD) at 450 nm, fibronectin production ([4]; 1×10^−5 M): 0.2090; Mean optical density (OD) at 450 nm, fibronectin production ([4]; 1×10^−6 M): 0.2225; Median optical density (OD) at 450 nm, fibronectin production ([4]; 1×10^−6 M): 0.2225; Effect on wound closure / wound healing (in words) [5]: accelerated wound healing during the 24 to 48 hrs following treatment; Skin irritation or redness ([6]; 0.25% composition): no visible sign of any skin irritation or redness; Time for cell renewal, treated skin (RENEWAL) ([6]; 0.25% in hyaluronic acid (0.5% aqueous solution), upper inner arm, individual patients, listed as GA): 21 Days and 14 Days (2×) and 12 Days (2×) and 19 Days and 17 Days
O=C(O)c1ccccc1O [salicylic acid]	strong cell proliferating activity especially at the lower concentrations; also recorded: all concentrations of salicylic acid had a significant effect on cell growth	0.3916	0.5004	0.5110	0.4668	0.4690															
zeatin							0.7726	0.7880	0.8716	0.8790	0.9770	0.9830	strongly stimulated collagen production at medium concentrations; also recorded: medium concentrations of zeatin also stimulated collagen production	0.7665	0.7665	0.8115	0.8115	0.7715	0.7715	effective for stimulating fibronectin production in human fibroblasts; also recorded: all compounds stimulated fibronectin production	Cell proliferating activity on human keratinocytes (in words) ([2]; listed as t-zeatin): strong cell proliferating activity at all concentrations; also recorded: all concentrations of t-zeatin had a significant effect on cell growth; Mean optical density (OD) at 450 nm, fibronectin production ([4]; 1×10^−4 M): 0.2075; Median optical density (OD) at 450 nm, fibronectin production ([4]; 1×10^−4 M): 0.2075; Mean optical density (OD) at 450 nm, fibronectin production ([4]; 1×10^−5 M): 0.2110; Median optical density (OD) at 450 nm, fibronectin production ([4]; 1×10^−5 M): 0.2110; Mean optical density (OD) at 450 nm, fibronectin production ([4]; 1×10^−6 M): 0.1995; Median optical density (OD) at 450 nm, fibronectin production ([4]; 1×10^−6 M): 0.1995
